From US20190388421A1, “NOVEL COMPOUNDS AND PHARMACEUTICAL COMPOSITIONS THEREOF FOR THE TREATMENT OF FIBROSIS” (Galapagos NV, priority 2016, published 2019)
pEC50, pIC50: −log10 of the molar value.

Legend:
[1] = biological target: T1, human GPCR sphingosine 1-phosphate receptor 2 (S1PR2) (Homo sapiens, UniProt O95136); assay: S1P2 antagonist assay (Ca2+ flux, S1P at EC80); format: cell-based; conditions: CHO-S1PR2 cells, highest concentration 20 μM
T1 construct: host or cells: CHO
In short: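 CHO cells stably overexpressing human S1PR2, serum-starved 1 h and loaded with Fluo8 dye, were read for 3 min after compound addition, then stimulated with S1P at EC80 after 15 min at 37 °C. Top concentration 20 μM in a 10-point 1/3 series; Ca2+ fluorescence ratio normalized to vehicle and S1P EC80, giving EC50.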

S1PR2 = biological target: T2, S1PR2 (Homo sapiens, UniProt O95136); assay: GTP-γS binding assay ([35S]GTPγS, S1P at EC80, S1PR2 membranes); format: biochemical; conditions: membranes from stable cell line over expressing S1PR2, read-out: S1PR2 EC
T2 construct: expressed in transfected cells
T2 sequence (O95136 whole entry): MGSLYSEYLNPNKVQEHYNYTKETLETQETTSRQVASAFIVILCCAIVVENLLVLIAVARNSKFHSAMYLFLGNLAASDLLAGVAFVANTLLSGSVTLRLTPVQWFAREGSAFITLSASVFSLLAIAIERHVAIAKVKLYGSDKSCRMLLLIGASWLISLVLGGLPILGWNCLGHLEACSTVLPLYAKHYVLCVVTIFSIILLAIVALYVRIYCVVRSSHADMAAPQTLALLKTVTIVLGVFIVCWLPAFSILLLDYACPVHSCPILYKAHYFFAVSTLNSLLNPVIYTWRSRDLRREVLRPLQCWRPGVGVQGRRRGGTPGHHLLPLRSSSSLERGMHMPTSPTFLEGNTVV
In short: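 Compounds tested against S1P at its EC80 on membranes (2.5 μg/well) from a stable S1PR2-overexpressing line, pre-incubated with 1 μM GDP 15 min at 4 °C. Buffer: 20 mM Tris pH 7.5, 10 mM MgCl2, 100 mM NaCl, 0.1% fatty-acid-free BSA, 50 ug/ml saponin. Incubated 4 h at room temperature; [35S]GTPγS binding read by WGA SPA beads.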

HFL-1 cells [2] = assay: IL8 assay (S1P induced IL-8 production); format: cell-based; conditions: Homo sapiens, HFL1; S1P (1 μM) induced IL-8, HFL-1 cells, without HSA
Experimental: (§1) S1P is able to induce cytokines such as IL-8 in a process that is S1PR2 dependent (O'Sullivan et al, 2014; Bruennert et al, 2015). This assay is designed to test inhibitory activity of compounds on S1P induced IL-8 on HFL-1 cells, a human fetal lung fibroblast cell line.
Human Fetal Lung cells (HFL-1) are seeded in 96 well plates in growth medium (F12K+10% heat inactivated FBS+1% Pen/strep). After overnight incubation at 37° C., 5% CO2 cells are refreshed with starvation medium without HSA (F12K+1% FBS+1% Pen/strep). On day three, compounds are added (10 point serial dilution, 30 μM highest concentration, ⅓ dilution, 0.3% DMSO final) and plates are incubated for one hour at 37° C., 5% CO2. Subsequently S1P at 1 μM final concentration is added and plates are incubated for 16 to 24 hours at 37° C., 5% CO2 after which the supernatant was collected. IL-8 levels in the supernatant are determined with the IL-8 ELISA of R&D systems.

[3] = biological target: T3, human GPCR sphingosine 1-phosphate receptor 1 (S1PR1) (Homo sapiens, UniProt P21453); assay: S1PR1 selectivity assay (Ca2+ flux, antagonist); format: cell-based; conditions: S1P1 antagonist EC50, CHO cells overexpressing human S1PR1 and Gq protein
T3 construct: host or cells: CHO
T3 sequence (P21453 whole entry): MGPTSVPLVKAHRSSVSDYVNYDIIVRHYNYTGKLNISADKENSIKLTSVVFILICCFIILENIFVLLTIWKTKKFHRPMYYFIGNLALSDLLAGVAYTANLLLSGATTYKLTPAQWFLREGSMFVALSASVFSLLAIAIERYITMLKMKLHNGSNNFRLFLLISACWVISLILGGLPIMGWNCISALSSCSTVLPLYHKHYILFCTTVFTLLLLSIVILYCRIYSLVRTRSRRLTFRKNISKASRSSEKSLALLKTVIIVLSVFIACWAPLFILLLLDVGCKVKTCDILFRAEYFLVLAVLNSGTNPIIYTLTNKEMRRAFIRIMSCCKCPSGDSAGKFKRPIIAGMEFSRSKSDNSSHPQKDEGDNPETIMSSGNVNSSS
In short: (§2)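 CHO cells stably overexpressing human S1PR1 or S1PR5 with Gq were preincubated with compound 15 min at 37 °C, then stimulated with S1P at EC80 (S1PR1) or an S1PR5-specific agonist (S1PR5). Ca2+ fluorescence was read for 3 min; 10-point 1/3 dilutions from 20 μM final, normalized to vehicle and EC80 trigger, gave EC50.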

[4] = biological target: T4, human GPCR sphingosine 1-phosphate receptor 5 (S1PR5) (Homo sapiens, UniProt Q9H228); assay: S1PR5 selectivity assay (Ca2+ flux, antagonist, S1PR5 specific agonist trigger); format: cell-based; conditions: S1P5 antagonist EC50, CHO cells overexpressing human S1PR5 and Gq protein
T4 construct: host or cells: CHO
T4 sequence (Q9H228 whole entry): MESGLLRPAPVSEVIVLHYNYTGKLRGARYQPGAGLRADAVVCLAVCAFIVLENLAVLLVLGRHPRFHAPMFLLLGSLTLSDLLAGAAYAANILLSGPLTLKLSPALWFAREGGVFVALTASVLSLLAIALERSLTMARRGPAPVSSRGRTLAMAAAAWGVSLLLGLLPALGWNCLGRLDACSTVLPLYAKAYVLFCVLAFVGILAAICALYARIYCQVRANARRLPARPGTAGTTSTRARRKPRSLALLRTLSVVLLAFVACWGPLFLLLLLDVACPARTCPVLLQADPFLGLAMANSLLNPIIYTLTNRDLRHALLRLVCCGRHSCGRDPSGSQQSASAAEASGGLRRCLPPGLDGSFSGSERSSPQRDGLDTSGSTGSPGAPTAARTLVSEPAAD
In short: as §2

HFL-1 cells [5] = assay: IL8 assay in the presence of Human Serum Albumin; format: cell-based; conditions: HFL1, S1P (5 μM) induced IL-8, HFL-1 cells, with 2% HSA, read-out: HSA IL8 EC50
Experimental: as §1
To evaluate the influence of plasma protein binding of Sip as well as compound, the S1P induced IL-8 levels were evaluated in presence of 2% Human Serum Albumin (HSA, equivalent to 40% human serum). By adding 2% HSA, which affects both the activity of the compounds as well as the S1P potency, the physiological condition are reproduced and the shift in potency expected under in vivo serum conditions can be measured.
Human Fetal Lung cells (HFL-1) are seeded in 96 well plates in growth medium (F12K+10% heat inactivated FBS+1% Pen/strep). After overnight incubation at 37° C., 5% CO2 cells are refreshed with starvation medium with HSA (F12K+1% FBS+1% Pen/strep+1.95% HSA). On day three, compounds are added (10 point serial dilution, 30 μM highest concentration, 1/3 dilution, 0.3% DMSO final) and plates are incubated for 1 h at 37° C., 5% CO2. Subsequently S1P at 5 μM final concentration is added and plates are incubated for 16 to 24 h at 37° C., 5% CO2 after which the supernatant was collected. IL-8 levels in the supernatant are determined with the IL-8 ELISA of R&D systems.

T1 sequence (O95136 whole entry): as the sequence (O95136 whole entry) above

pEC50 [1] | pEC50 (S1PR2) | pEC50 (HFL-1 cells [2]) | pEC50 [3] | pEC50 [4] | pIC50 (HFL-1 cells [5]) | Structure (SMILES)
8.21 | 7.58 | 8.82 | 5.35 | 5.48 | 7.42 | CCOc1nc(C(F)(F)F)cc(NC(=O)NCc2cc(C)c(-c3cn(C)nc3C(F)(F)F)nn2)c1C [Compound 30, 1-[2-ethoxy-3-methyl-6-(trifluoromethyl)-4-pyridyl]-3-[[5-methyl-6-[1-methyl-3-(trifluoromethyl)pyrazol-4-yl]pyridazin-3-yl]methyl]urea]
7.89 | 7.35 | 8.52 | ≤ 4.70 | 5.18 | 6.62 | CCOc1nc(C(F)(F)F)cc(N/C(=N/C#N)NCc2cc(C)c(-c3cn(C)nc3C(F)(F)F)nn2)c1C [Compound 80, 2-cyano-1-[2-ethoxy-3-methyl-6-(trifluoromethyl)-4-pyridyl]-3-[[5-methyl-6-[1-methyl-3-(trifluoromethyl)pyrazol-4-yl]pyridazin-3-yl]methyl]guanidine]
8.02 | 7.48 | 8.66 | 5.22 | 5.18 | 7.21 | CCOc1cc(NC(=O)NCc2cc(C)c(-c3cn(C)nc3C(F)(F)F)nn2)cc(C(F)(F)F)n1 [Compound 1, 1-(2-Ethoxy-6-trifluoromethyl-pyridin-4-yl)-3-[5-methyl-6-(1-methyl-3-trifluoromethyl-1H-pyrazol-4-yl)-pyridazin-3-ylmethyl]-urea]
8.05 | 7.60 | 8.70 | 4.78 | 4.96 | 7.33 | CCOc1nc(C)cc(NC(=O)NCc2cc(C)c(-c3cn(C)nc3C(F)(F)F)nn2)c1C [Compound 72, 1-(2-ethoxy-3,6-dimethyl-4-pyridyl)-3-[[5-methyl-6-[1-methyl-3-(trifluoromethyl)pyrazol-4-yl]pyridazin-3-yl]methyl]urea]
5.79 | 5.83 | 5.58 | 5.18 | ≤ 4.70 | 5.00 | CN(C)Cc1cc(CNC(=O)Nc2cc(Cl)nc(OCC(F)F)c2)nnc1-c1cn(C)nc1C(F)(F)F [Compound 65, 1-[2-chloro-6-(2,2-difluoroethoxy)-4-pyridyl]-3-[[5-(dimethylamino-methyl)-6-[1-methyl-3-(trifluoromethyl)pyrazol-4-yl]pyridazin-3-yl]methyl]urea]
6.02 | 6.12 | 6.97 | ≤ 4.70 | ≤ 4.70 | 5.00 | CCOc1cc(NC(=O)NCc2cc(C)c(-c3cnn(C)c3C)nn2)cc(C(F)(F)F)n1 [Compound 69]
7.00 | 6.27 | 7.31 | ≤ 4.70 | ≤ 4.70 | 6.22 | COCC(C)Oc1cc(NC(=O)NCc2cc(C)c(-c3cn(C)nc3C(F)(F)F)nn2)cc(C(F)(F)F)n1 (stereo not drawn) [Compound 41, 1-[2-(2-methoxy-1-methyl-ethoxy)-6-(trifluoromethyl)-4-pyridyl]-3-[[5-methyl-6-[1-methyl-3-(trifluoromethyl)pyrazol-4-yl]pyridazin-3-yl]methyl]urea]
7.57 | 6.81 | 7.62 | 5.29 | ≤ 4.70 | 6.98 | Cc1cc(CNC(=O)Nc2cc(OCC(F)F)nc(N3CC(F)(F)C3)c2)nnc1-c1cn(C)nc1C(F)(F)F [Compound 48, 1-[2-(3,3-difluoroazetidin-1-yl)-6-(2,2-difluoroethoxy)-4-pyridyl]-3-[[5-methyl-6-[1-methyl-3-(trifluoromethyl)pyrazol-4-yl]pyridazin-3-yl]methyl]urea]
7.66 | 6.51 | 7.08 | ≤ 4.70 | ≤ 4.70 | 6.77 | CCOc1ncc(NC(=O)NCc2cc(C)c(-c3cn(C)nc3C(F)(F)F)nn2)cc1Cl [Compound 8, 1-(5-chloro-6-ethoxy-3-pyridyl)-3-[[5-methyl-6-[1-methyl-3-(trifluoromethyl)pyrazol-4-yl]pyridazin-3-yl]methyl]urea]
8.07 | 7.31 | 7.78 | 5.79 | 5.36 | 6.92 | COc1cc(CNC(=O)Nc2cc(Cl)nc(OCC(F)F)c2)nnc1-c1cn(C)nc1C(F)(F)F [Compound 64, 1-[2-chloro-6-(2,2-difluoroethoxy)-4-pyridyl]-3-[[5-methoxy-6-[1-methyl-3-(trifluoromethyl)pyrazol-4-yl]pyridazin-3-yl]methyl]urea]
6.54 | 5.97 | 6.85 | 5.29 | 5.18 | 5.41 | Cc1cc(CNC(=O)Nc2cc(OC3CCOCC3)nc(C(F)(F)F)c2)nnc1-c1cn(C)nc1C(F)(F)F [Compound 40, 1-[[5-methyl-6-[1-methyl-3-(trifluoromethyl)pyrazol-4-yl]pyridazin-3-yl]methyl]-3-[2-tetrahydropyran-4-yloxy-6-(trifluoromethyl)-4-pyridyl]urea]
7.77 | 7.21 | 8.10 | 4.88 | 5.18 | 6.95 | CCOc1cc(N/C(=N/C#N)NCc2cc(C)c(-c3cn(C)nc3C(F)(F)F)nn2)cc(C(F)(F)F)n1 [Compound 76, 2-cyano-1-[2-ethoxy-6-(trifluoromethyl)-4-pyridyl]-3-[[5-methyl-6-[1-methyl-3-(trifluoromethyl)pyrazol-4-yl]pyridazin-3-yl]methyl]guanidine]
8.10 | 7.62 | 8.82 | 5.23 | 5.44 | 7.13 | Cc1cc(CNC(=O)Nc2cc(Cl)nc(OCC(F)F)c2C)nnc1-c1cn(C)nc1C(F)(F)F [Compound 50, 1-[6-chloro-2-(2,2-difluoroethoxy)-3-methyl-4-pyridyl]-3-[[5-methyl-6-[1-methyl-3-(trifluoromethyl)pyrazol-4-yl]pyridazin-3-yl]methyl]urea]
8.14 | 7.41 | 9.05 | 5.18 | 5.26 | 6.94 | Cc1cc(CNC(=O)Nc2cc(C#N)nc(OCC(F)F)c2C)nnc1-c1cn(C)nc1C(F)(F)F [Compound 59, 1-(6-cyano-2-(2,2-difluoroethoxy)-3-methyl-4-pyridyl]-3-[[5-methyl-6-[1-methyl-3-(trifluoromethyl)pyrazol-4-yl]pyridazin-3-yl]methyl]urea]
8.03 | 7.46 | 8.34 | 5.18 | ≤ 4.70 | 7.37 | Cc1cc(CNC(=O)Nc2cc(N3CC(F)(F)C3)nc(C(F)(F)F)c2)nnc1-c1cn(C)nc1C(F)(F)F [Compound 47]
5.18 | 4.95 | 5.81 | ≤ 4.70 | ≤ 4.70 | 5.00 | Cc1cc(CNC(=O)Nc2cc(OCC(O)CO)nc(C(F)(F)F)c2)nnc1-c1cn(C)nc1C(F)(F)F (stereo not drawn) [Compound 5, 1-[2-(2,3-dihydroxypropoxy)-6-(trifluoromethyl)-4-pyridyl]-3-[[5-methyl-6-[1-methyl-3-(trifluoromethyl)pyrazol-4-yl]pyridazin-3-yl]methyl]urea]
